Experimental data taken from PubChem BioAssay AID328 (DTP/NCI, 2004).
Toxic doses and inconclusive results are not listed. How the source made its calls: active means survival T/C of 150% or more; inactive means T/C below 125% in these data.

System: BDF1 mice, P388 leukemia ip, median survival T/C
Assay: NCI In Vivo Anticancer Drug Screen. Data for tumor model P388 Leukemia (intraperitoneal) in B6D2F1 (BDF1) mice
Settings: endpoint: median survival time, higher = longer survival
How it was run: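 Survival ratio, drug arm over vehicle arm, in mice with a transplanted tumour.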

[1] = dose: 50.0 mg/kg/injection, schedule: Q01DX009 (ip), vehicle: saline with Tween-80
[2] = dose: 100.0 mg/kg/injection, schedule: Q01DX009 (ip), vehicle: saline with Tween-80
[3] = dose: 200.0 mg/kg/injection, schedule: Q01DX009 (ip), vehicle: saline with Tween-80
[4] = dose: 100.0 mg/kg/injection, schedule: Q04DX003 (ip), vehicle: saline with Tween-80
[5] = dose: 200.0 mg/kg/injection, schedule: Q04DX003 (ip), vehicle: saline with Tween-80
[6] = dose: 400.0 mg/kg/injection, schedule: Q04DX003 (ip), vehicle: saline with Tween-80
[7] = dose: 100.0 mg/kg/injection, schedule: Q04DX002 (ip), vehicle: saline with Tween-80
[8] = dose: 25.0 mg/kg/injection, schedule: Q01DX009 (ip), vehicle: saline with Tween-80
[9] = dose: 100.0 mg/kg/injection, schedule: Q04DX003 (ip), vehicle: Klucel (hydroxypropylcellulose) (HPC)
[10] = dose: 200.0 mg/kg/injection, schedule: Q04DX003 (ip), vehicle: Klucel (hydroxypropylcellulose) (HPC)
[11] = dose: 6.25 mg/kg/injection, schedule: Q04DX003 (ip), vehicle: saline
[12] = dose: 12.5 mg/kg/injection, schedule: Q04DX003 (ip), vehicle: saline

Measured: T/C

CCOC(=O)CN1CCC2CC1c1c([nH]c3ccccc13)C21OCCO1 (stereo unspecified)
inactive: dose: 0.06 mg/kg/injection, schedule: Q01DX009 (ip), vehicle: saline 105 % of control | dose: 0.12 mg/kg/injection, schedule: Q01DX009 (ip), vehicle: saline 95 % of control | dose: 0.25 mg/kg/injection, schedule: Q01DX009 (ip), vehicle: saline 100 % of control | dose: 0.5 mg/kg/injection, schedule: Q01DX009 (ip), vehicle: saline 105 % of control | dose: 1.0 mg/kg/injection, schedule: Q01DX009 (ip), vehicle: saline 105 % of control | dose: 2.0 mg/kg/injection, schedule: Q01DX009 (ip), vehicle: saline 100 % of control | dose: 8.0 mg/kg/injection, schedule: Q01DX009 (ip), vehicle: saline 98 % of control | dose: 16.0 mg/kg/injection, schedule: Q01DX009 (ip), vehicle: saline 102 % of control | dose: 32.0 mg/kg/injection, schedule: Q01DX009 (ip), vehicle: saline 104 % of control

C1=Cc2c3c(c4c(c2C1)C=CC4)C=CC3
inactive: [1] 91 % of control | [2] 93 % of control | [3] 95 % of control

CC(=O)c1ccccc1[N+](=O)[O-]
inactive: [1] 95 % of control | [2] 100 % of control | [4] 95 % of control | [3] 86 % of control | [5] 90 % of control | [6] 100 % of control

COC(=O)c1cc2ccccc2o1
inactive: [4] 95 % of control | [5] 95 % of control | [6] 91 % of control

Cc1nc2[nH]c(=O)ccc2c(C)c1N
inactive: [7] 92 % of control

O=C(N=Nc1c(O)[nH]c2c(Cl)cc(Cl)cc12)C(=O)Nc1cccc(C(F)(F)F)c1
inactive: [2] 90 % of control | [3] 96 % of control

O=C(NC(=O)c1c(F)cccc1F)Nc1cccc(C(F)(F)F)c1
inactive: [8] 97 % of control | [1] 99 % of control | [2] 97 % of control

N#Cc1nc2ccccc2nc1C#N
inactive: dose: 12.5 mg/kg/injection, schedule: Q01DX009 (ip), vehicle: Klucel (hydroxypropylcellulose) (HPC) 106 % of control | dose: 25.0 mg/kg/injection, schedule: Q01DX009 (ip), vehicle: Klucel (hydroxypropylcellulose) (HPC) 99 % of control

COC(=O)CCC1([N+](=O)[O-])CCCCC1
inactive: [8] 87 % of control | dose: 25.0 mg/kg/injection, schedule: Q04DX003 (ip), vehicle: saline with Tween-80 92 % of control | [1] 95 % of control | dose: 50.0 mg/kg/injection, schedule: Q04DX003 (ip), vehicle: saline with Tween-80 92 % of control | [2] 95 % of control | [4] 88 % of control

Cc1cc(N(C)C)c2ccc3c(ccc4c(N(C)C)cc(C)nc43)c2n1
inactive: [1] 121 % of control | [2] 123 % of control

CC1CC(C)(C)N=C(C(C)(C)c2ccccc2)O1 (stereo unspecified)
inactive: dose: 50.0 mg/kg/injection, schedule: Q04DX003 (ip), vehicle: saline sonified 100 % of control | dose: 100.0 mg/kg/injection, schedule: Q04DX003 (ip), vehicle: saline sonified 100 % of control | dose: 200.0 mg/kg/injection, schedule: Q04DX003 (ip), vehicle: saline sonified 90 % of control

COc1cc2c(cc1OC)-c1c3c(cc4c1[C@H](C2)N(C)CC4)OCO3
inactive: dose: 37.5 mg/kg/injection, schedule: Q01DX009 (ip), vehicle: Klucel (hydroxypropylcellulose) (HPC) 97 % of control | dose: 75.0 mg/kg/injection, schedule: Q01DX009 (ip), vehicle: Klucel (hydroxypropylcellulose) (HPC) 98 % of control | dose: 150.0 mg/kg/injection, schedule: Q01DX009 (ip), vehicle: Klucel (hydroxypropylcellulose) (HPC) 98 % of control

COC(OC)C1(O)CC(C(C)COC2CCCCO2)OC(=O)N1 (stereo unspecified)
inactive: dose: 50.0 mg/kg/injection, schedule: Q04DX003 (ip), vehicle: Klucel (hydroxypropylcellulose) (HPC) 102 % of control | [9] 106 % of control | [10] 106 % of control

O=C(OC1CC2CCCC21)c1cc([N+](=O)[O-])cc([N+](=O)[O-])c1 (stereo unspecified)
inactive: dose: 100.0 mg/kg/injection, schedule: Q01DX001 (ip), vehicle: saline with Tween-80 94 % of control | dose: 200.0 mg/kg/injection, schedule: Q01DX001 (ip), vehicle: saline with Tween-80 97 % of control | dose: 400.0 mg/kg/injection, schedule: Q01DX001 (ip), vehicle: saline with Tween-80 99 % of control

Clc1ccc(C2(Cn3ccnc3)OCC(COc3ccc(-c4ccccc4)cc3)O2)c(Cl)c1 (stereo unspecified)
inactive: [1] 108 % of control | [2] 101 % of control | [3] 99 % of control

CC(C)(C)c1cccc(S(=O)(=O)Oc2ccccc2[N+](=O)[O-])c1
inactive: dose: 100.0 mg/kg/injection, schedule: Q01DX001 (ip), vehicle: saline sonified 100 % of control | dose: 200.0 mg/kg/injection, schedule: Q01DX001 (ip), vehicle: saline sonified 118 % of control | dose: 400.0 mg/kg/injection, schedule: Q01DX001 (ip), vehicle: saline sonified 95 % of control

O=[N+]([O-])c1ccc(Nc2ccncc2)cc1
inactive: dose: 100.0 mg/kg/injection, schedule: Q04DX003 (ip), vehicle: saline 104 % of control | dose: 200.0 mg/kg/injection, schedule: Q04DX003 (ip), vehicle: saline 95 % of control | dose: 400.0 mg/kg/injection, schedule: Q04DX003 (ip), vehicle: saline 104 % of control

COc1cc2ccc3c(c2cc1OC)C(=O)CNC3C (stereo unspecified)
inactive: dose: 3.13 mg/kg/injection, schedule: Q01DX009 (ip), vehicle: saline 104 % of control | dose: 3.13 mg/kg/injection, schedule: Q04DX003 (ip), vehicle: saline 109 % of control | dose: 6.25 mg/kg/injection, schedule: Q01DX009 (ip), vehicle: saline 100 % of control | [11] 100 % of control | dose: 12.5 mg/kg/injection, schedule: Q01DX009 (ip), vehicle: saline 100 % of control | [12] 109 % of control

CS(=O)(=O)Nc1ccccc1-c1nc2ccccc2c(=O)o1
inactive: [8] 105 % of control | [1] 104 % of control | [2] 105 % of control | [3] 103 % of control

Cc1ccc(S(=O)(=O)N=S2CCCC2)cc1
inactive: [9] 100 % of control | [10] 95 % of control | dose: 400.0 mg/kg/injection, schedule: Q04DX003 (ip), vehicle: Klucel (hydroxypropylcellulose) (HPC) 100 % of control

CN(C)P(=S)(N(C)C)N1CCC1
inactive: [1] 96 % of control | [2] 90 % of control | [3] 109 % of control

Cc1ccc(N2CCN(CCCN3CCN(c4ccccc4Cl)CC3)CC2)cc1
inactive: dose: 6.25 mg/kg/injection, schedule: Q01DX009 (ip), vehicle: saline with Tween-80 86 % of control | [11] 104 % of control | dose: 12.5 mg/kg/injection, schedule: Q01DX009 (ip), vehicle: saline with Tween-80 95 % of control | [12] 100 % of control | [8] 100 % of control | dose: 25.0 mg/kg/injection, schedule: Q04DX003 (ip), vehicle: saline 104 % of control

CC(=O)Nc1ccc(OC(C)=O)cc1C=O
inactive: dose: 50.0 mg/kg/injection, schedule: Q04DX002 (ip), vehicle: saline with Tween-80 111 % of control | [7] 98 % of control | dose: 200.0 mg/kg/injection, schedule: Q04DX002 (ip), vehicle: saline with Tween-80 89 % of control

Cc1cc(C)cc(NCCC#N)c1
inactive: dose: 100.0 mg/kg/injection, schedule: Q01DX009 (ip), vehicle: other 115 % of control | dose: 200.0 mg/kg/injection, schedule: Q01DX009 (ip), vehicle: other 115 % of control | dose: 400.0 mg/kg/injection, schedule: Q01DX009 (ip), vehicle: other 105 % of control
